Results on two compounds are retold here after patent publication US11207461B2, “Drug delivery system and method for controlled and continuous delivery of drugs into the brain by bypassing the blood brain barrier” (priority 2015, dated 2021).

For data set [1] the following is noted: rabbit; blood samples before and at 10, 20 and 30 minutes after start of drug delivery; FIG. 18.
Protocol: The device was placed into the maxillary sinus of a rabbit by perforating the maxillary sinus mucosa from the connective tissue side and placing the implant tip into the sinus cavity and above the epithelial layer. […] Whole body perfusion was done using a peristaltic pump with warm physiological saline for 20 minutes at a controlled rate. The perfused brain was then resected at the end one hour from the start of the procedure. Brain samples from different parts of the brain was analyzed using High Performance Liquid Chromatography. […] During the procedure, a blood sample was collected before drug delivery. Three blood samples were then collected at intervals of 10, 20 and 30 minutes respectively following start of drug delivery. The samples were analyzed using High Performance Liquid Chromatography.
The conditions of data set [2]: rabbit. The source says: The device was surgically placed in a rabbit in the maxillary sinus region by removing the bone overlying the respiratory mucosa. The tip of the device was placed beneath the maxillary sinus lining mucosa in contact with the connective tissue side of the mucosa. […] FIG. 15 refers to the comparative brain values of dopamine using High Performance Liquid Chromatography, between the control and the rabbit in which dopamine was delivered in vivo in a continuous and controlled manner under the maxillary sinus mucosa using the drug delivery system. […] The drug delivery was stopped at the twentieth minute. […] FIG. 16 refers to blood values of dopamine in the rabbit after in vivo delivery of dopamine under the maxillary sinus mucosa using the device.

Turning to `CCN(CC)CC(=O)Nc1c(C)cccc1C` [Lignocaine], the “blood values of lignocaine (HPLC), drug in peripheral circulation” value in data set [1] is “no drug in the peripheral circulation”.

On to `NCCc1ccc(O)c(O)c1` [Dopamine], for which, in data set [2] (blood sample at 30 minutes, delivery stopped at the twentieth minute, FIG. 16), the “blood value of dopamine (HPLC) after drug delivery was stopped” value was “peaked again”. Further, the “blood values of dopamine (HPLC) during drug delivery” value in data set [2] (blood samples at 10 and 20 minutes after start of drug delivery, versus sample before delivery, FIG. 16) is on record as “dipped”. In addition, in data set [2] (dopamine infused under maxillary sinus mucosa, during the 20 minute delivery), the “drug in peripheral circulation during drug delivery” value is “no increase of the drug in peripheral circulation”. The “brain concentration of dopamine (HPLC) compared with the normal” value in data set [2] (infused under maxillary sinus mucosa for twenty minutes at 1 milliliter per hour, perfused brain resected at one hour, samples from different parts of the brain, FIG. 15) was “increased concentration of dopamine in all parts of the brain except diencephalon”.
